Measurements taken from patent US20250011288A1 (BRISTOL-MYERS SQUIBB COMPANY, priority 2021, published 2025).

Each compound was assayed against T1, human RXFP1 (Homo sapiens, UniProt Q9HBX9) (assay: human RXFP1 (hRXFP1) HEK293 cAMP assay (HTRF)). Conditions: HEK293 cells stably expressing human RXFP1, 30 min at room temperature.
T1 construct: expressed in transfected cells
T1 sequence (Q9HBX9 1-757): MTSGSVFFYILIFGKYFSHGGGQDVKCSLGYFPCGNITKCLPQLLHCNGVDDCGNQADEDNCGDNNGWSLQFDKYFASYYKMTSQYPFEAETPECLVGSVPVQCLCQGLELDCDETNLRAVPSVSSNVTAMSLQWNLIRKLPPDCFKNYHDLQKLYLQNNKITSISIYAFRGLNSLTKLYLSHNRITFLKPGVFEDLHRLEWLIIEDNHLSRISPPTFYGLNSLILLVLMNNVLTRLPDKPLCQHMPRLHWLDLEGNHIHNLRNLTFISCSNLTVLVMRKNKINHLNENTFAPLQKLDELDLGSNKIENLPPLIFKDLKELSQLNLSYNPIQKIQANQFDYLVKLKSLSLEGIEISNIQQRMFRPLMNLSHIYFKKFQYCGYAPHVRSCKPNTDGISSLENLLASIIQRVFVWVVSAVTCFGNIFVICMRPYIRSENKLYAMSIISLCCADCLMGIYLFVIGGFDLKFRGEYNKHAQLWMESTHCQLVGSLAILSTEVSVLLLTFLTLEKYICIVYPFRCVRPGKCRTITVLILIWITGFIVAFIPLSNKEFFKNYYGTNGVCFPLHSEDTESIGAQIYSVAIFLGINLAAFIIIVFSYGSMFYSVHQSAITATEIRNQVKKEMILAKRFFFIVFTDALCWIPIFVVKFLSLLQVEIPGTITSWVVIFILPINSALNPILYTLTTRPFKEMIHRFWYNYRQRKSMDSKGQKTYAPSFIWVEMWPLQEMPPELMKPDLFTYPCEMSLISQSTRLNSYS
Assay type: cell-based
Method in brief: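 Intracellular cAMP was quantified by HTRF after a 30 min room-temperature exposure of hRXFP1-HEK293 cells (1500/well) to compound at 0.010 nM–50 µM final, 2% DMSO. Buffer was HBSS with 20 mM HEPES, 0.05% BSA and 0.5 mM IBMX; values came from a 4-parameter logistic fit.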

Structure (SMILES)	EC50
COc1cnc(-c2cc([C@H](OC(=O)NC3CCC3)C(F)(F)F)ccc2F)nc1C(=O)N[C@@H]1C2CCC(/C2=C/C(F)(F)F)[C@@H]1C(=O)Nc1ccc(F)c(C(F)(F)F)c1 (stereo partly drawn) [Example 37, (1S)-2,2,2-trifluoro-1-14-fluoro-3-(4-{[(2R,3S,7Z)-3-{[4-fluoro-3-(trifluoromethyl)phenyl]carbamoyl}-7-(2,2,2-trifluoroethylidene)bicyclo[2.2.1]heptan-2-yl]carbamoyl}-5-methoxypyrimidin-2-yl)phenyl]ethyl N-cyclobutylcarbamate]	95 nM
COc1ncc(C2=NOC3CC(C(C)O)CC23)cc1C(=O)N[C@H]1[C@@H](C(=O)Nc2ccc(F)c(C(F)(F)F)c2)[C@H]2CC[C@@H]1/C2=C\CCC(F)(F)F (stereo partly drawn) [Example 124, N-((1R,2R,3S,4R,Z)-3-((4-fluoro-3-(trifluoromethyl)phenyl)carbamoyl)-7-(4,4,4-trifluorobutylidene)bicyclo[2.2.1]heptan-2-yl)-5-(5-(1-hydroxyethyl)-3a,5,6,6a-tetrahydro-4H-cyclopenta[d]isoxazol-3-yl)-2-methoxynicotinamide]	3.6 nM
COc1ncc(C2=NOC3CC(C(O)C4CC4)CC23)cc1C(=O)N[C@H]1[C@@H](C(=O)Nc2ccc(F)c(C(F)(F)F)c2)[C@H]2CC[C@@H]1/C2=C\C1CC1 (stereo partly drawn) [Example 111, 5-(5-(cyclopropyl (hydroxy)methyl)-3a,5,6,6a-tetrahydro-4H-cyclopenta[d]isoxazol-3-yl)-N-((1R,2R,3S,4R,Z)-7-(cyclopropyl-methylene)-3-((4-fluoro-3-(trifluoromethyl)phenyl)carbamoyl)bicyclo[2.2.1]heptan-2-yl)-2-methoxynicotinamide]	3.6 nM
COc1cc2c(cc1C(=O)N[C@@H]1C3CCC(/C3=C/C3CC3)[C@@H]1C(=O)Nc1ccc(F)c(C(F)(F)F)c1)CCN(CC(C)(C)O)C2 (stereo partly shown) [Example 95]	1600 nM
COc1ncc(C2=NOC3COCC23)cc1C(=O)N[C@H]1[C@@H](C(=O)Nc2ccc(F)c(C(F)(F)F)c2)[C@H]2CC[C@@H]1/C2=C\C1CCCC1 (stereo partly drawn) [Example 136, N-((1R,2R,3S,4R,Z)-7-(cyclopentyl-methylene)-3-((4-fluoro-3-(trifluoromethyl)phenyl)carbamoyl)bicyclo[2.2.1]heptan-2-yl)-2-methoxy-5-(3a,4,6,6a-tetrahydrofuro[3,4-d]isoxazol-3-yl)nicotinamide]	2.5 nM
COc1ncc(C2=NOC3CC(O)CC23)cc1C(=O)N[C@H]1[C@@H](C(=O)Nc2ccc(F)c(C(F)(F)F)c2)[C@H]2CC[C@@H]1/C2=C\C1CCC1 (stereo partly drawn) [Example 117, N-((1R,2R,3S,4R,Z)-7-(cyclobutyl-methylene)-3-((4-fluoro-3-(trifluoromethyl)phenyl)carbamoyl)bicyclo[2.2.1]heptan-2-yl)-5-(5-hydroxy-3a,5,6,6a-tetrahydro-4H-cyclopenta[d]isoxazol-3-yl)-2-methoxynicotinamide]	3.5 nM
COc1ncc(C2=NOC(C)(CO)C2)cc1C(=O)N[C@H]1[C@@H](C(=O)Nc2ccc(F)c(C(F)(F)F)c2)[C@H]2CC[C@@H]1/C2=C\C1CC1 (stereo partly drawn) [Example 157, N-[(1R,2R,3S,4R, 7Z)-7-(cyclopropyl-methylidene)-3-{[4-fluoro-3-(trifluoromethyl)phenyl]carbamoyl}bicyclo[2.2.1]heptan-2-yl]-5-[5-(hydroxymethyl)-5-methyl-4,5-dihydro-1,2-oxazol-3-yl]-2-methoxypyridine-3-carboxamide]	5.6 nM
COc1cc(C(=O)N[C@@H]2C3CCC(C3=C(C)C)[C@@H]2C(=O)Nc2ccc(F)c(C(F)(F)F)c2)c(OC)nn1 (stereo partly drawn) [Example 4, N-[(2R,3S)-3-{[4-fluoro-3-(trifluoromethyl)phenyl]carbamoyl}-7-(propan-2-ylidene)bicyclo [2.2.1]heptan-2-yl]-3,6-dimethoxy-pyridazine-4-carboxamide]	5000 nM
CC1Cc2cc(C3=NOC4CC(O)(C(F)(F)F)CC34)cc(C(=O)N[C@H]3[C@@H](C(=O)Nc4ccc(F)c(C(F)(F)F)c4)[C@H]4CC[C@@H]3/C4=C\C3CCCC3)c2O1 (stereo partly drawn) [Example 156, N-[(1R,2R,3S,4R, 7Z)-7-(cyclopentyl-methylidene)-3-{[4-fluoro-3-(trifluoromethyl)phenyl]carbamoyl}bicyclo[2.2.1]heptan-2-yl]-5-[5-hydroxy-5-(trifluoromethyl) 3aH,4H,5H,6H, 6aH-cyclopenta[d][1,2]oxazol-3-yl]-2-methyl-2,3-dihydro-1-benzofuran-7-carboxamide]	1.3 nM
CCCc1cnc(OC)c(C(=O)N[C@@H]2C3CCC(/C3=C/C(F)(F)F)[C@@H]2C(=O)Nc2ccc(F)c(C(F)(F)F)c2)c1 (stereo partly drawn) [Example 51, N-[(2R,3S,7Z)-3-{[4-fluoro-3-(trifluoromethyl)phenyl]carbamoyl}-7-(2,2,2-trifluoroethylidene)bicyclo[2.2.1]heptan-2-yl]-2-methoxy-5-propylpyridine-3-carboxamide]	1300 nM
COc1cc2c(cc1C(=O)N[C@H]1[C@@H](C(=O)Nc3ccc(F)c(C(F)(F)F)c3)[C@H]3CC[C@@H]1/C3=C\C1CC1)CCN(CCCO)C2 [Example 90, N-((1R,2R,3S,4R,Z)-7-(cyclopropylmethylene)-3-((4-fluoro-3-(trifluoromethyl)phenyl)carbamoyl)bicyclo[2.2.1]heptan-2-yl)-2-(3-hydroxypropyl)-7-methoxy-1,2,3,4-tetrahydroisoquinoline-6-carboxamide]	2400 nM
COc1ncc(-c2cc([C@H](OC(=O)NC3CCC3)C(F)(F)F)ccc2F)cc1C(=O)N[C@H]1[C@@H](C(=O)N[C@H](C)C2(C)CC2)[C@H]2CC[C@@H]1/C2=C\C1CC(F)(F)C1 [Example 188, (1S)-1-[3-(5-{[(1R,2R,3S,4R,7Z)-7-[(3,3-difluorocyclobutyl)methylidene]-3-{[(1R)-1-(1-methylcyclopropyl)ethyl]carbamoyl}bicyclo[2.2.1]heptan-2-yl]carbamoyl}-6-methoxypyridin-3-yl)-4-fluorophenyl]-2,2,2-trifluoroethyl N-cyclobutyl-carbamate]	0.5 nM
COc1nn(C)cc1C(=O)N[C@@H]1C2CCC(/C2=C/C(F)(F)F)[C@@H]1C(=O)Nc1ccc(F)c(C(F)(F)F)c1 (stereo partly drawn) [Example 12, N-[(2R,3S,7Z)-3-{[4-fluoro-3-(trifluoromethyl)phenyl]carbamoyl}-7-(2,2,2-trifluoroethylidene)bicyclo[2.2.1]heptan-2-yl]-3-methoxy-1-methyl-1H-pyrazole-4-carboxamide]	4600 nM
CC1Cc2cc(C3=NOC4CC(CO)CC34)cc(C(=O)N[C@H]3[C@@H](C(=O)N[C@H](C)C4(C)CC4)[C@H]4CC[C@@H]3/C4=C\C3CC3)c2O1 (stereo partly drawn) [Example 153, N-[(1R,2R,3S,4R, 7Z)-7-(cyclopropyl-methylidene)-3-{[(1R)-1-(1-methylcyclopropyl)ethyl]carbamoyl}bicyclo[2.2.1]heptan-2-yl]-5-[5-(hydroxymethyl) 3aH,4H,5H,6H, 6aH-cyclopenta[d][1,2]oxazol-3-yl]-2-methyl-2,3-dihydro-1-benzofuran-7-carboxamide]	4.6 nM
COc1cnc(-c2cc(C(=O)O)ccc2F)nc1C(=O)N[C@@H]1C2CCC(/C2=C/C(F)(F)F)[C@@H]1C(=O)Nc1ccc(F)c(C(F)(F)F)c1 (stereo partly drawn) [Example 32, 4-Fluoro-3-(4-{[(2R,3S,7Z)-3-{[4-fluoro-3-(trifluoromethyl)phenyl]carbamoyl}-7-(2,2,2-trifluoroethylidene)bicyclo[2. 2.1]heptan-2-yl]carbamoyl}-5-methoxypyrimidin-2-yl)benzoic acid]	166 nM
COc1cc2c(cc1C(=O)N[C@@H]1C3CCC(/C3=C/C3CC3)[C@@H]1C(=O)Nc1ccc(F)c(C(F)(F)F)c1)CCN(S(C)(=O)=O)C2 (stereo partly shown) [Example 93]	1700 nM
COc1cnc(-c2cccc(C(=O)O)c2)cc1C(=O)N[C@@H]1C2CCC(/C2=C/C(F)(F)F)[C@@H]1C(=O)Nc1ccc(F)c(C(F)(F)F)c1 (stereo partly drawn) [Example 31, 3-(4-{[(2R,3S,7Z)-3-{[4-fluoro-3-(trifluoromethyl)phenyl]carbamoyl}-7-(2,2,2-trifluoroethylidene)bicyclo[2.2.1]heptan-2-yl]carbamoyl}-5-methoxypyridin-2-yl)benzoic acid]	162 nM
COc1ncc(-c2ccc(C(=O)O)cc2)cc1C(=O)N[C@@H]1C2CCC(C2=C(C)C)[C@@H]1C(=O)Nc1ccc(F)c(C(F)(F)F)c1 (stereo partly drawn) [Example 20, 4-(5-{[(2R,3S)-3-{[4-fluoro-3-(trifluoromethyl)phenyl]carbamoyl}-7-(propan-2-ylidene)bicyclo[2.2.1]heptan-2-yl]carbamoyl}-6-methoxypyridin-3-yl)benzoic acid]	250 nM
COc1ncc(COC2(CO)CC2)cc1C(=O)N[C@H]1[C@@H](C(=O)Nc2ccc(F)c(C(F)(F)F)c2)[C@H]2CC[C@@H]1/C2=C\C1CC1 [Example 73, N-[(1R,2R,3S, 4R,7Z)-7-(cyclopropyl-methylidene)-3-{[4-fluoro-3-(trifluoromethyl)phenyl]carbamoyl}bicyclo[2.2.1]heptan-2-yl]-5-{[1-(hydroxymethyl)cyclopropoxy]methyl}-2-methoxypyridine-3-carboxamide]	24 nM
